The values that follow come from paper PMC6934184, “Selective DNA-PKcs inhibition extends the therapeutic index of localized radiotherapy and chemotherapy” (The Journal of Clinical Investigation, 2019).

For this assay, the target named is T1, MARK3 (Homo sapiens, UniProt P27448).
T1 construct: purchased Thermo Fisher Scientific (Life Technologies) SelectScreen
In words: SelectScreen Z'LYTE. It counts as biochemical. In outline: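 SelectScreen broad panel; activity (Z'LYTE, Adapta) plus binding formats. ATP: Km app for CSF1R Z'LYTE; 10 for CAMK1 Adapta. Readout = % per kinase.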

For orientation: inhibition means the relative decrease from the control value, in per cent. The low end stands for a response near the control, the high end for a response far below the control.

T1 sequence (P27448 whole entry): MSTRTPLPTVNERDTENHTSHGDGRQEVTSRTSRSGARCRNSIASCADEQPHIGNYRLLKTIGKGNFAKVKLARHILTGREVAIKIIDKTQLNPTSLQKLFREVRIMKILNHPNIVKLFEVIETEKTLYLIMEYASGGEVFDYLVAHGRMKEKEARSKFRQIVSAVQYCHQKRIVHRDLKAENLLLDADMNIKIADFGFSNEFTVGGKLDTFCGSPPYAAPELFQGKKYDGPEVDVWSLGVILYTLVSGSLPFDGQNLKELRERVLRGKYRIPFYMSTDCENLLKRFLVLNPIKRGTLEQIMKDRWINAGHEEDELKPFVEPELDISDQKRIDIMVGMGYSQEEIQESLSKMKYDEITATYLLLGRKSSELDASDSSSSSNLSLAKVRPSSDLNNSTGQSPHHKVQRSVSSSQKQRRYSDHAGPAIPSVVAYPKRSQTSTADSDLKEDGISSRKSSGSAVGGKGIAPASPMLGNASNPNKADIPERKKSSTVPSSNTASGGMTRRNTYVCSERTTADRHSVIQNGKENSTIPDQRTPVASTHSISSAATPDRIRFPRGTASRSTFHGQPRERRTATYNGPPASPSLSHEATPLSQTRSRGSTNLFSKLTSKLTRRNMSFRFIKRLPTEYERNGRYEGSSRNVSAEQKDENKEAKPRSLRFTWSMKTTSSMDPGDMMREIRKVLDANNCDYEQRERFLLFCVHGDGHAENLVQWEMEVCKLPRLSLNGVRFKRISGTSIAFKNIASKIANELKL

With `CN(C(=O)CN1CCOCC1)c1ccc2sc3c(-c4cccc5c(=O)cc(N6CC7CCC(C6)O7)oc45)cccc3c2c1` [NU5455], the inhibition at 1 µM is 11.4%.
